Data on one compound can be found in US9714265B2, “Mutagenic nucleoside analogs and uses thereof” (Massachusetts Institute of Technology, priority 2015, dated 2017).

Series [1] concerns single-stranded vector containing a single KP1212. The experiment in a line: in vitro and in vivo replication of a single-stranded vector containing a single KP1212. From the text: Mutagenic nucleoside analogs may act through lethal mutagenesis. Lethal mutagenesis is a strategy whereby the innate immune system or mutagenic pool nucleotides increase the error rate of viral replication above the error catastrophe limit. Lethal mutagenesis can also increase the mutation rate of the DNA and/or RNA of cancer cells (e.g., cancer cells with a mutator phenotype) to over the error catastrophe limit and thus show genotoxicity and/or mitochondrial toxicity against the cancer cells. Lethal mutagenesis is proposed as a mechanism for several anti-viral compounds, including Ribavirin, which is useful for treating RS virus infection (RSV) and KP1212, a dihydro base which causes A to G and G to A mutations in HIV. […] The mutagenic properties of KP1212 were determined empirically by in vitro and in vivo replication of a single-stranded vector containing a single KP1212. […] A model is proposed that correlates the mutagenicity of KP1212 with its tautomeric distribution in solution. When incorporated into HIV DNA by RT, KP1212 allows DNA synthesis to continue. However, the modified base of KP1212 is able to tautomerize and base-pair alternately with guanine and adenine. […] Variable temperature (VT) nuclear magnetic resonance (NMR) techniques have allowed the identification of compounds capable of multiple tautomerism.

In series [2] the test system is M13 single-stranded genomes, containing one KP1212 base at a specific site. The experiment in a line: primer extension at various pHs on M13 genome containing KP1212, PCR and REAP assay (mutagenesis). In kind it is biochemical. As to the method: The method of evaluating the mutagenicity of a compound allows for analyzing the product of a primer extension reaction (by itself a trivial reaction, even if run at different pHs) with the REAP method (this method was published in Delaney, J. C. & Essigmann, J. M., Methods Enzymol. 408, 1-15 (2006)). The methods involve a custom primer, of the form 5′-B-A-3′ and the following protocol. The A sequence is the actual primer for the extension reaction, and by itself has a low (about 37° C.) melting temperature. […] Its melting temperature is high, at about 70° C. The template of the primer extension reaction is an M13 genome containing at a specific site a modified base (or nucleoside analog). After the primer extension reaction, a PCR reaction is run using two primers; primer 1 is the forward primer used in the REAP method (or a primer annealing on the M13 genome upstream of the lesion site); primer 2 is exactly the sequence B. This method guarantees that only the primer extension product will be PCR amplified, and amplification will not depend on the yield of the primer extension reaction. Therefore, this method allows to detect and analyze mutagenic consequences (including rare events) of nucleoside analogs in a variety of conditions, where the type of polymerase, pH, ionic strength, salt concentration, and inhibitors can be varied over a large range of possibilities.
The M13 single-stranded genomes, containing one KP1212 base at a specific site were constructed and purified as previously reported (Li, Fedeles, Singh, Peng et al, 2014, Tautomerism provides a molecular explanation for the mutagenic properties of the anti-HIV nucleoside 5-aza-5,6-dihydro-2′-deoxycytidine, Proc. Natl. Acad. Sci. U.S.A. 111, E3252-3259). […]
The PCR products were subsequently purified and analyzed with the REAP assay as previously described (Li, Fedeles, Singh, Peng et al, 2014, Tautomerism provides a molecular explanation for the mutagenic properties of the anti-HIV nucleoside 5-aza-5,6-dihydro-2′-deoxycytidine. Proc. Natl. Acad. Sci. U.S.A. 111, E3252-3259). […]

Series [3] is described as follows: pH-dependent 1D FTIR / 2D IR spectroscopy of KP1212 in aqueous solutions (pKa). The settings on record: aqueous (D2O) solutions, pH* varied from 1.6 to 13.9; 1D and/or 2D IR spectroscopy, 25° C. The class given is physicochemical. How it is done: FIGS. 1A to 1E. FIG. 1A: pH-dependent (Fourier transform infrared) FTIR spectra of KP1212 from pH* 1.6 (red or thin solid line) to 13.9 (blue or thick solid line) at 25° C. FIG. 1B: populations of protonated, neutral, and deprotonated KP1212 as a function of pH* obtained from the first three components of singular value decomposition (SVD) analysis. The solid lines show fits of the Henderson-Hasselbalch equation with pKa1 and pKa2. FIGS. 1C to 1E: SVD reconstructed IR spectra representative for the protonated (FIG. 1C), neutral (FIG. 1D), and deprotonated (FIG. 1E) KP1212. The grey curves, labeled A, in FIG. 1C and FIG. 1D are the experimental FTIR spectra of 1-(1′,4′-cyclohexadienyl)-2-methylaminopropane (CMP) at pH* 1.6 and 7.4, respectively. The pH* is the pH measured in D2O, as measured with a pH meter. The FTIR experiments were run in D2O.
An in vitro assay has been developed that allowed the measurement of the mutation type and rate of KP1212 at different pH values, and the mutagenic properties of KP1212 have been evaluated at pH 6-8. […] By simply changing the pH of a composition (e.g., a bodily fluid or aqueous solution) containing KP1212 to 5.9, KP1212 achieves its optimal mutagenicity of about 50%.
For both 1D FTIR and 2D IR experiments, the H/D exchanged KP1212 was dissolved at a concentration of 20 mg/ml (88 mM) in 0.5 M phosphate buffer pD (pH reading in D2O) 7.9. […]

Another series deals with HIV. The settings on record: Phase I and II; active form of the pro-drug KP1461; cited from earlier work.

By pKa is commonly meant the pH at which an ionisable group is half protonated. Read a high pKa as a group that holds its proton tightly. `NC1=NC(=O)N([C@H]2C[C@H](O)[C@@H](CO)O2)CN1` [KP1212, 5-aza-5,6-dihydro-2′-deoxycytidine]: in series [1], the mutagenicity was found to be 10%. In series [1] (in vivo, when present in a template strand), the C-to-T mutations entry is “about 10%”. Also, in series [1] (under physiological conditions), the “paired with adenine, share of the time” value was “about 10%” and the “paired with guanine, share of the time” value is on record as “approximately 90%”. Also, the mutagenesis result in series [2] (at pH 5.9) is “about 50%”. In series [2] (at pH 8), the mutagenesis entry is “about 10%”. For the same compound, the “C-to-T mutations in dependence on pH” value in series [2] (pH 5.5-8.5) is reported as “more C-to-T mutations as the pH decreases”. Further, the pKa in series [3] was ~7. For the same compound, in the series on HIV, the “safety in clinical trials” value is given as “safe”.
